The results in this text go back to patent US8901118B2, “Compounds and methods for kinase modulation, and indications therefor” (Plexxikon Inc., priority 2010, dated 2014).

The target in one experiment is CYP3A4(BQ) (Homo sapiens, UniProt P08684). The experiment can be described thus: CYP3A4(BQ) inhibition. The note with it: CYP3A4, substrate BQ; read-out: Cyp IC50 3A4(BQ). Type of experiment: in vitro ADME. The method, then:
(§1) CYP (Cytochrome P450) enzymes are the major drug metabolizing enzymes present in the liver. The inhibition of CYP enzyme activity (IC50) for each of CYP1A2, CYP2C19, CYP2C9, CYP2D6, CYP3A4(BFC) and CYP3A4(BQ) is determined for compounds, where inhibition of metabolism of a known substrate leads to a decrease in the fluorescence of the metabolized product. The fluorescence of the product is monitored as a function of compound concentration. Compounds are dissolved in DMSO to a concentration of 100 mM. These are diluted 1 μL into 82 μL of acetonitrile. An 11 μL aliquot of this solution is then added to 204 μL of cofactor mix (1.3% NADPH Regeneration system Solution A, 1.04% NADPH Regeneration system Solution B from BD Biosciences, 5% acetonitrile and 0.05% DMSO). These are then serially diluted 1:1 (160 μL to 160 μL co-factor mix) for a total of 10 points. A 10 μL aliquot of this final mixture is dispensed into 384 well assay plates and incubated for 10 minutes at 37° C. […] Assay plates are incubated at 37° C. (CYP1A2-15 min; CYP2C9-45 min; CYP2C19, 2D6 and 3A4-30 min) and read in a Tecan Safire 2 plate reader (CYP1A2, 2C19 and 3A4 409 ex/460 em; CYP2C9 and 2D6 409 ex/530 em). The signal versus compound concentration is used to determine the IC50. The enzymes and substrates for this assay are obtained from BD Biosciences.

For another experiment, the target named is CYP2D6 (Homo sapiens, UniProt P10635). The experiment can be described thus: CYP2D6 inhibition (fluorescent substrate AMMC). It counts as in vitro ADME. To be noted: read-out: Cyp IC50 2D6. The method, then:
as §1

Another experiment addresses c-Kit kinase (Homo sapiens, UniProt P10721). The experiment can be described thus: c-Kit kinase biochemical activity assay (AlphaScreen, biotin-(E4Y)10 phosphorylation). To be noted: 100 μM ATP; read-out: Biochemical Inhibition IC50 Kit. As to the method:
Assays for biochemical and cell based activity are known in the art, for example, U.S. Patent Application Publication Number 2009/0076046, the disclosure of which is hereby incorporated by reference as it relates to such assays. For example, in one assay the biochemical activity IC50 values are determined with respect to inhibition of c-Kit kinase activity, where inhibition of phosphorylation of a peptide substrate is measured as a function of compound concentration. Compounds to be tested are dissolved in DMSO to a concentration of 20 mM. These are diluted 30 μL into 120 μL of DMSO (4 mM) and 1 μL is added to an assay plate. These are then serially diluted […] (50 μL to 100 μL DMSO) for a total of 8 points. Plates are prepared such that each kinase reaction is 20 μL in 1× kinase buffer (25 mM HEPES, pH 7.5, 2 mM MgCl2, 2 mM MnCl2, 0.01% Tween-20, 1 mM DTT, 0.01% BSA), 5% DMSO and 100 μM ATP. Substrate is 30 nM biotin-(E4Y) 10 (Millipore). C-kit kinase (obtained from Millipore (#14-559) or is prepared as described in U.S. Patent Application Publication Number 2009/0076046, the disclosure of which is hereby incorporated by reference as it relates to this assay) is at 0.75 ng per sample. After incubation of the kinase reaction for 1 hour at room temperature, 5 μL of donor beads (Streptavidin coated beads (Perkin Elmer Life Science) final concentration 10 μg/mL) in stop buffer (25 mM Hepes pH 7.5, 100 mM EDTA, 0.01% BSA) is added, the sample is mixed and incubated for 20 minutes at room temperature before adding 5 μL of acceptor beads (PY20 coated beads (Perkin Elmer Life Science) final concentration 10 μg/mL) in stop buffer. The samples are incubated for 60 minutes at room temperature and the signal per well is read on Envision reader. Phosphorylated substrate results in binding of the PY20 antibody and association of the donor and acceptor beads such that signal correlates with kinase activity. The signal vs. compound concentration is used to determine the IC50.

pIC50: −log10 of the molar value. Bounds are passed on as bounds.

Sequence of CYP2D6 (P10635 whole entry): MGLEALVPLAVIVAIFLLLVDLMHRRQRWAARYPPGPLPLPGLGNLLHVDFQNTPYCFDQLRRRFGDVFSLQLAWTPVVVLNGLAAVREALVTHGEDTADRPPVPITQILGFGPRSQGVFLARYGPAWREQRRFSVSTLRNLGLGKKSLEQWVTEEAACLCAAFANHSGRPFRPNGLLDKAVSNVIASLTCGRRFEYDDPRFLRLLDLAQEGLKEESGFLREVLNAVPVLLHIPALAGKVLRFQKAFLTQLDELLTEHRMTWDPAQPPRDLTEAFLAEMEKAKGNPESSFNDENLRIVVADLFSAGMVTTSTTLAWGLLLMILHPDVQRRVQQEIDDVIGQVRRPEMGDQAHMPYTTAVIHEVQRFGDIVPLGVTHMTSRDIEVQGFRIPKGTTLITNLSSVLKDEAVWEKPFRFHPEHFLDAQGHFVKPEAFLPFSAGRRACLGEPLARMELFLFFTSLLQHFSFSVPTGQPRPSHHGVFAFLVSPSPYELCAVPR
Sequence of c-Kit kinase (P10721 26-976): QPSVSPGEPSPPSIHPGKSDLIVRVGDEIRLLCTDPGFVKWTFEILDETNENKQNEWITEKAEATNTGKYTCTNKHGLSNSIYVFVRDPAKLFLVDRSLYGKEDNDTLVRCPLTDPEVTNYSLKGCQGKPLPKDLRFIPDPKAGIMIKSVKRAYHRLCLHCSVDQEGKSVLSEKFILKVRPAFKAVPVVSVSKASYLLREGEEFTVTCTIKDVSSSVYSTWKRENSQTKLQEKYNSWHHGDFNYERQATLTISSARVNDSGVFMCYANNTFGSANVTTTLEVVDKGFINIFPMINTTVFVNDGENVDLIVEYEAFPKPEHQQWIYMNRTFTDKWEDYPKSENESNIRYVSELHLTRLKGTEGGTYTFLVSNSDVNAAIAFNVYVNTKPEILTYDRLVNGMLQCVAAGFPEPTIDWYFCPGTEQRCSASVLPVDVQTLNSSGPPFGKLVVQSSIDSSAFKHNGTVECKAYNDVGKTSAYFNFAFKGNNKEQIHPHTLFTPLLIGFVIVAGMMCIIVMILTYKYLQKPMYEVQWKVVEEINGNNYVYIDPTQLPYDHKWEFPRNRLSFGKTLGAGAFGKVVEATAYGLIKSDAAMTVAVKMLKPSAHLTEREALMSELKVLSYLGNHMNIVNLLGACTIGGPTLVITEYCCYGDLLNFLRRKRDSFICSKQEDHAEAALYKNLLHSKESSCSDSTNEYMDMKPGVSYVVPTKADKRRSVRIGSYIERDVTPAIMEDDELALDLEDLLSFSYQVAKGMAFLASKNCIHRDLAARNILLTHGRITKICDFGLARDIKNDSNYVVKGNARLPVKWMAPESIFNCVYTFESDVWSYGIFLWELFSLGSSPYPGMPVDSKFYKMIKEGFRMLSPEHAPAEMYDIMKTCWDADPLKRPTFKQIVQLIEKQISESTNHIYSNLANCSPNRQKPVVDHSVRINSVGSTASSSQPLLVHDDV
Sequence of CYP3A4(BQ) (P08684 whole entry): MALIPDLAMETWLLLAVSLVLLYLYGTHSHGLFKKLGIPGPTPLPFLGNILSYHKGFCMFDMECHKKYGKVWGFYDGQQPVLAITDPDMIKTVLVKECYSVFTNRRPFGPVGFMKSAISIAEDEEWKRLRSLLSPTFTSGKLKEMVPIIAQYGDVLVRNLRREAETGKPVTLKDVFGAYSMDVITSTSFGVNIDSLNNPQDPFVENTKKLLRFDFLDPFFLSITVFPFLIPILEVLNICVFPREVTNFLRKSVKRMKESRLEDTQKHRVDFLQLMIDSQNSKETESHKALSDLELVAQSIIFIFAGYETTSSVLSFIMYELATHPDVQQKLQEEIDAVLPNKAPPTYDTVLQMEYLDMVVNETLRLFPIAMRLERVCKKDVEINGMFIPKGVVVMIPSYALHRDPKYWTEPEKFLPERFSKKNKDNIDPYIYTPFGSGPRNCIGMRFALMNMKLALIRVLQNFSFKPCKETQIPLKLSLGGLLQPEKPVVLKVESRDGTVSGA

A word on the pIC50: it is the negative decadic logarithm of the IC50, by convention in mol/L. With `CCc1ccc(Nc2ccc(C(=O)c3c[nH]c4ncnc(NC)c34)c(F)n2)cn1` [Compound P-4124, [6-[(6-ethyl-3-pyridyl)amino]-2-fluoro-3-pyridyl]-[4-(methylamino)-7H-pyrrolo[2,3-d]pyrimidin-5-yl]methanone], the figures for the negative logarithm of the IC50 (pIC50) at CYP3A4(BQ), at CYP2D6 and at c-Kit kinase were under 5.00, over 5.30 and over 8.00, respectively.

In the case of `CNc1ncnc2[nH]cc(C(=O)c3ccc(Nc4cncc(OC)c4)nc3F)c12` [Compound P-4108, [2-fluoro-6-[(5-methoxy-3-pyridyl)amino]-3-pyridyl]-[4-(methylamino)-7H-pyrrolo[2,3-d]pyrimidin-5-yl]methanone], the pIC50 was under 5.00 on CYP3A4(BQ), over 5.30 at CYP2D6 and over 6.00 on c-Kit kinase.

As for `CCCCNc1ncnc2[nH]cc(C(=O)c3ccc(Nc4ccc(CC)nc4)nc3F)c12` [Compound P-4100, [4-(butylamino)-7H-pyrrolo[2,3-d]pyrimidin-5-yl]-[6-[(6-ethyl-3-pyridyl)amino]-2-fluoro-3-pyridyl]methanone], the values for the pIC50 at CYP3A4(BQ), on CYP2D6 and on c-Kit kinase were under 5.00, over 5.30 and over 7.00, respectively.

For the molecule `CC(C)Nc1ncnc2[nH]cc(C(=O)c3ccc(NC4CCCCC4)nc3F)c12` [Compound P-4101, [6-(cyclohexylamino)-2-fluoro-3-pyridyl]-[4-(isopropylamino)-7H-pyrrolo[2,3-d]pyrimidin-5-yl]methanone], the pIC50 at CYP3A4(BQ) is under 5.00; at CYP2D6, under 5.00; on c-Kit kinase it was over 6.00.

`O=C(c1ccc(NC2CCC(F)(F)CC2)nc1)c1c[nH]c2ncnc(NC3CC3)c12` [Compound P-4088, [4-(cyclopropylamino)-7H-pyrrolo[2,3-d]pyrimidin-5-yl]-[6-[(4,4-difluorocyclohexyl)amino]-3-pyridyl]methanone]: the pIC50 on CYP3A4(BQ) was under 5.00; on CYP2D6 it was under 5.00; at c-Kit kinase, over 6.00.

For the molecule `Fc1cc(Cc2c[nH]c3ncnc(NC4CC4)c23)cnc1NC1CCC(F)(F)CC1` [Compound P-4127, N-cyclopropyl-5-[[6-[(4,4-difluorocyclohexyl)amino]-5-fluoro-3-pyridyl]methyl]-7H-pyrrolo[2,3-d]pyrimidin-4-amine], the pIC50 is over 5.30 at CYP3A4(BQ), under 5.00 on CYP2D6 and over 6.00 at c-Kit kinase.

For the molecule `COc1ccc(Nc2ccc(C(=O)c3c[nH]c4ncnc(N[C@@H](C)c5ccc(F)cc5)c34)c(F)n2)cn1` [Compound P-4072, [2-fluoro-6-[(6-methoxy-3-pyridyl)amino]-3-pyridyl]-[4-[[(1S)-1-(4-fluorophenyl)ethyl]amino]-7H-pyrrolo[2,3-d]pyrimidin-5-yl]methanone], the pIC50 is under 5.00 at CYP3A4(BQ), 5.00 to 5.30 on CYP2D6 and under 6.00 on c-Kit kinase.

In the case of `O=C(c1ccc(Nc2ccc(C3CC3)nc2)nc1F)c1c[nH]c2ncnc(NCC(F)(F)F)c12` [Compound P-4090, [6-[(6-cyclopropyl-3-pyridyl)amino]-2-fluoro-3-pyridyl]-[4-(2,2,2-trifluoroethylamino)-7H-pyrrolo[2,3-d]pyrimidin-5-yl]methanone], the pIC50 is under 5.00 at CYP3A4(BQ), under 5.00 on CYP2D6 and over 6.00 on c-Kit kinase.

For the molecule `COc1ccc(Nc2ccc(C(=O)c3c[nH]c4ncnc(NC(C)(C)C)c34)c(F)n2)cn1` [Compound P-4055, [4-(tert-butylamino)-7H-pyrrolo[2,3-d]pyrimidin-5-yl]-[2-fluoro-6-[(6-methoxy-3-pyridyl)amino]-3-pyridyl]methanone], the values for the pIC50 on CYP3A4(BQ), on CYP2D6 and on c-Kit kinase were under 5.00, under 5.00 and over 6.00, respectively.

In the case of `COc1cncc(Nc2ccc(C(=O)c3c[nH]c4ncnc(NCC(F)(F)F)c34)c(F)n2)c1` [Compound P-4103, [2-fluoro-6-[(5-methoxy-3-pyridyl)amino]-3-pyridyl]-[4-(2,2,2-trifluoroethylamino)-7H-pyrrolo[2,3-d]pyrimidin-5-yl]methanone], the pIC50 was under 5.00 on CYP3A4(BQ), under 5.00 on CYP2D6 and over 6.00 on c-Kit kinase.
